Measured values published in US8084399B2, “Process for screening of a binding amphiphilic peptides specific for hairpin RNA” (priority 2009, dated 2011).
pKd: −log10 of the molar value. Several values for one entry are separate records, joined by “and”; a condition that tells them apart may be missing. Identical values can stand only once. Where no end group is shown, it is not given here. [ ]: non-standard residue; d: D form. Orn = NCCC[C@H](N)C(=O)O; Dab = NCC[C@H](N)C(=O)O; Dap = NC[C@H](N)C(=O)O

Assays:
[1] = target: RRE hairpin RNA; assay: Fluorescence anisotropy competition with Rev-N-rhodamine probe, binding to RRE hairpin RNA; design: species or system HIV; settings: 20° C., pH 7.4, read-out: Dissociation constant, RRE
Description: (§1) Binding force to each target hairpin RNA (IRES, RRE, TAR and 16S A-site) was measured by fluorescence polarization using alanine scanned peptide library (1b-1h).
(§2) Particularly, […] of each target RNA was prepared at the concentration of 10 mM, which stood at 65° C. for 10 minutes and then cooled down slowly at room temperature, leading to folding. The amphiphilic peptide was prepared respectively at the concentration of […], which were maintained at 0° C. As a probe, rev peptide labeled with rhodamine (Rev-N-rhodamine) emitting […] fluorescence was prepared at the concentration of 10 mM. Buffer was composed of 140 mM NaCl, 5 mM KCl, 1 mM MgCl2, and 20 mM HEPES (N-2-Hydroxyethylpiperazine-N′-2-Ethanesulfonic Acid, pH 7.4). Fluorescence Anisotropy was measured using AMINCO-Bowman Series Luminescence Spectrometer at 20° C. Ten nM of the probe was added in […] of buffer, to which target RNA was added to induce interaction between the probe and the target RNA. At that time, anisotropy value increased. Then, the synthesized peptide competing with the probe for binding site was added thereto with increasing the concentration slowly. Changes of fluorescence polarization were measured until fluorescence polarization reached as low as the beginning. Considering the concentration and amount of the peptide added, binding force to target RNA was calculated. That is, the binding strength between target RNA and peptide was determined according to the following KaleidaGraph. [Peptide]=Kd(Amax−A)/[Kd(A−A0)+1]×[RNA]−Kd(A−A0)^2[Probe]0/(Amax−A)(Amax−A0)
(§3) Herein, [Peptide] indicates the concentration of peptide, [RNA] indicates the concentration of target RNA, and [Probe]0 indicates the concentration of probe. A is the value of fluorescence anisotropy of sample, Amax is the value of totally bound tracer, and A0 is the value of totally free tracer.

[2] = target: TAR hairpin RNA; assay: Fluorescence anisotropy competition with Rev-N-rhodamine probe, binding to TAR hairpin RNA; design: species or system HIV; settings: fluorescence anisotropy, 20° C., pH 7.4; read-out: Dissociation constant, TAR
Description: as §1, §2, §3

[3] = target: 16S ribosomal RNA A-site; assay: Fluorescence anisotropy competition with Rev-N-rhodamine probe, binding to 16S A-site; settings: 20° C., pH 7.4, read-out: Dissociation constant, 16S A-site
Description: as §1, §2, §3

[4] = tested on: IRES domain IV hairpin; assay: Fluorescence anisotropy competition with Rev-N-rhodamine probe, binding to IRES hairpin; design: species or system HCV; settings: for differentiation coefficient (IRES): (mean Kd to other hairpin RNA)/(Kd to one hairpin RNA); for pKd: fluorescence anisotropy, 20° C., pH 7.4, read-out: Dissociation constant, IRES
Description: as §1, §2, §3

[5] = Circular dichroism (CD), percentage of alpha-helix; type: physicochemical; settings: CD at 20° C., condition not given; for Alpha-helical rate (%), second value of pair: value after the slash; for Alpha-helical rate (%), first value of pair: value before the slash
Description: To investigate alpha-helix of the amphiphilic peptide (1a-1h), circular dichroism (CD) was performed. Particularly, CD was measured at 20° C. by using JASCO model J715 spectropolarimeter. Scanning was performed at 190-250 nm three times (bandwidth: 1 nm, datapitch: 0.5 nm, speed: 100 nm/min), which were averaged to obtain CD data. Spectrum was corrected by measuring background spectrum. CD signal was recorded after modulating thereof with mean residue ellipticity [Q]. Percentage (%) of alpha-helix(fn) was calculated by the following formula. [Q]=Qobs[MRW/(10lc)]
MRW=mean residue weight (dividing molecular weight by the number of peptide bond, l=pathway length (cm), c=concentration (mg/mL). fn=([Q]222−[Q]coil)/([Q]helix−[Q]coil) [Q]helix=−40,000[…]+100t [Q]coil=640−45t
[Q]222=mean residue ellipticity at 222 nm (deg cm2 mol-1), [Q]helix=ellipticity of peptide having complete helical structure, [Q]coil=ellipticity of peptide having complete random coil structure, n=number of amino acid, t=° C.

Substance | pKd [1] | pKd [2] | pKd [3] | differentiation coefficient (IRES) [4] | pKd [4] | Alpha-helical rate (%), second value of pair [5] [%] | Alpha-helical rate (%), first value of pair [5] [%] | binding strength to IRES, in words ([4]; compared with the original peptide)
LKKLLKLLOrnKLLDapWAG (LKKLLKLL[Orn]KLL[Dap]WAG-NH2; N-terminus assumed; SMILES CC(C)C[C@H](NC(=O)[C@H](CC(C)C)NC(=O)[C@H](CCCCN)NC(=O)[C@H](CCCN)NC(=O)[C@H](CC(C)C)NC(=O)[C@H](CC(C)C)NC(=O)[C@H](CCCCN)NC(=O)[C@H](CC(C)C)NC(=O)[C@H](CC(C)C)NC(=O)[C@H](CCCCN)NC(=O)[C@H](CCCCN)NC(=O)[C@@H](N)CC(C)C)C(=O)N[C@@H](CN)C(=O)N[C@@H](Cc1c[nH]c2ccccc12)C(=O)N[C@@H](C)C(=O)NCC(N)=O) [peptide 3h, third generation peptide, both faces modified] | 7.55 | 7.82 | 7.72 | 1.6 | 7.89 | 56 | 12 | –
LKKLLKLLOrnKLLDapLAG (LKKLLKLL[Orn]KLL[Dap]LAG-NH2; N-terminus assumed; SMILES CC(C)C[C@H](NC(=O)[C@H](CN)NC(=O)[C@H](CC(C)C)NC(=O)[C@H](CC(C)C)NC(=O)[C@H](CCCCN)NC(=O)[C@H](CCCN)NC(=O)[C@H](CC(C)C)NC(=O)[C@H](CC(C)C)NC(=O)[C@H](CCCCN)NC(=O)[C@H](CC(C)C)NC(=O)[C@H](CC(C)C)NC(=O)[C@H](CCCCN)NC(=O)[C@H](CCCCN)NC(=O)[C@@H](N)CC(C)C)C(=O)N[C@@H](C)C(=O)NCC(N)=O) [peptide 2k, second generation peptide, hydrophilic face modified] | 7.70 | 7.89 | 7.77 | 24 and 25 | 9.17 | 61 | 48 | –
LKKLLDabLLOrnKLLDapLAG (LKKLL[Dab]LL[Orn]KLL[Dap]LAG-NH2; N-terminus assumed; SMILES CC(C)C[C@H](NC(=O)[C@H](CN)NC(=O)[C@H](CC(C)C)NC(=O)[C@H](CC(C)C)NC(=O)[C@H](CCCCN)NC(=O)[C@H](CCCN)NC(=O)[C@H](CC(C)C)NC(=O)[C@H](CC(C)C)NC(=O)[C@H](CCN)NC(=O)[C@H](CC(C)C)NC(=O)[C@H](CC(C)C)NC(=O)[C@H](CCCCN)NC(=O)[C@H](CCCCN)NC(=O)[C@@H](N)CC(C)C)C(=O)N[C@@H](C)C(=O)NCC(N)=O) [2m, second generation peptide, hydrophilic face modified] | 7.72 | 7.51 | 7.89 | 4.9 | 8.37 | 69 | 49 | –
LKKLLKLLOrnKLLKLAG (LKKLLKLL[Orn]KLLKLAG-NH2; N-terminus assumed; SMILES CC(C)C[C@H](NC(=O)[C@H](CCCCN)NC(=O)[C@H](CC(C)C)NC(=O)[C@H](CC(C)C)NC(=O)[C@H](CCCCN)NC(=O)[C@H](CCCN)NC(=O)[C@H](CC(C)C)NC(=O)[C@H](CC(C)C)NC(=O)[C@H](CCCCN)NC(=O)[C@H](CC(C)C)NC(=O)[C@H](CC(C)C)NC(=O)[C@H](CCCCN)NC(=O)[C@H](CCCCN)NC(=O)[C@@H](N)CC(C)C)C(=O)N[C@@H](C)C(=O)NCC(N)=O) [2d, second generation peptide, hydrophilic face modified] | 8.12 | 8.01 | 7.74 | 8.7 | 8.89 | 57 | 28 | –
LKKLWKLLKKLLKLAG [2p, tryptophan scanned second generation peptide] | 8.21 | 8.01 | 7.92 | 3.3 | 8.55 | 56 | 20 | –
LKKLLKLLAKLLKLKG [1e, alanine scanned first generation peptide] | 6.89 | 7.13 | 6.74 | 1.1 | 6.92 | 43 | 12 | reduced binding strength
LKKLLKLLKKLLDapLAG (LKKLLKLLKKLL[Dap]LAG-NH2; N-terminus assumed; SMILES CC(C)C[C@H](NC(=O)[C@H](CN)NC(=O)[C@H](CC(C)C)NC(=O)[C@H](CC(C)C)NC(=O)[C@H](CCCCN)NC(=O)[C@H](CCCCN)NC(=O)[C@H](CC(C)C)NC(=O)[C@H](CC(C)C)NC(=O)[C@H](CCCCN)NC(=O)[C@H](CC(C)C)NC(=O)[C@H](CC(C)C)NC(=O)[C@H](CCCCN)NC(=O)[C@H](CCCCN)NC(=O)[C@@H](N)CC(C)C)C(=O)N[C@@H](C)C(=O)NCC(N)=O) [2i, second generation peptide, hydrophilic face modified] | 7.64 | 8.08 | 7.70 | 12 | 8.85 | 54 | 39 | –
LKKLLKWLKKLLDapLAG (LKKLLKWLKKLL[Dap]LAG-NH2; N-terminus assumed; SMILES CC(C)C[C@H](NC(=O)[C@H](CN)NC(=O)[C@H](CC(C)C)NC(=O)[C@H](CC(C)C)NC(=O)[C@H](CCCCN)NC(=O)[C@H](CCCCN)NC(=O)[C@H](CC(C)C)NC(=O)[C@H](Cc1c[nH]c2ccccc12)NC(=O)[C@H](CCCCN)NC(=O)[C@H](CC(C)C)NC(=O)[C@H](CC(C)C)NC(=O)[C@H](CCCCN)NC(=O)[C@H](CCCCN)NC(=O)[C@@H](N)CC(C)C)C(=O)N[C@@H](C)C(=O)NCC(N)=O) [3c, third generation peptide, both faces modified] | 8.01 | 8.08 | 7.68 | 17 | 9.12 | 36 | 29 | –
LKKLLKLLDapKLLKLAG (LKKLLKLL[Dap]KLLKLAG-NH2; N-terminus assumed; SMILES CC(C)C[C@H](NC(=O)[C@H](CCCCN)NC(=O)[C@H](CC(C)C)NC(=O)[C@H](CC(C)C)NC(=O)[C@H](CCCCN)NC(=O)[C@H](CN)NC(=O)[C@H](CC(C)C)NC(=O)[C@H](CC(C)C)NC(=O)[C@H](CCCCN)NC(=O)[C@H](CC(C)C)NC(=O)[C@H](CC(C)C)NC(=O)[C@H](CCCCN)NC(=O)[C@H](CCCCN)NC(=O)[C@@H](N)CC(C)C)C(=O)N[C@@H](C)C(=O)NCC(N)=O) [2f, second generation peptide, hydrophilic face modified] | 8.00 | 7.96 | 7.82 | 0.6 | 7.70 | 57 | 25 | –
LKKLLKWLOrnKLLKLAG (LKKLLKWL[Orn]KLLKLAG-NH2; N-terminus assumed; SMILES CC(C)C[C@H](NC(=O)[C@H](CCCCN)NC(=O)[C@H](CC(C)C)NC(=O)[C@H](CC(C)C)NC(=O)[C@H](CCCCN)NC(=O)[C@H](CCCN)NC(=O)[C@H](CC(C)C)NC(=O)[C@H](Cc1c[nH]c2ccccc12)NC(=O)[C@H](CCCCN)NC(=O)[C@H](CC(C)C)NC(=O)[C@H](CC(C)C)NC(=O)[C@H](CCCCN)NC(=O)[C@H](CCCCN)NC(=O)[C@@H](N)CC(C)C)C(=O)N[C@@H](C)C(=O)NCC(N)=O) [3b, third generation peptide, both faces modified] | 7.74 | 7.66 | 7.62 | 4.2 | 8.29 | 52 | 34 | –
